Reference: the NIST ThermoML archive (doi:10.1016/j.jct.2019.01.025)

Experiment: xn = mol fraction of the nth substance listed
Conditions: 100 kPa, Liquid, Vibrating tube method

NCCO [2-aminoethan-1-ol] + CCCCO
mass density [kg/m3]
Conditions	x1 = 0.1188	x1 = 0.2328	x1 = 0.3421	x1 = 0.4472	x1 = 0.5482	x1 = 0.6454	x1 = 0.739	x1 = 0.8291	x1 = 0.9161	x1 = 1
293.15 K	828.26	846.15	864.71	884.56	904.81	925.84	947.05	969.79	993.15	1016.47
298.15 K	824.33	842.24	860.76	880.66	900.83	921.87	943.04	965.8	989.15	1012.53
303.15 K	820.32	838.27	856.75	876.66	896.78	917.83	938.98	961.75	985.1	1008.47
308.15 K	816.39	834.35	852.81	872.72	892.82	913.86	935	957.78	981.13	1004.49
313.15 K	812.46	830.41	848.84	868.77	888.83	909.88	931	953.79	977.14	1000.5
318.15 K	808.37	826.33	844.74	864.67	884.72	905.76	926.88	949.68	973.04	996.39
323.15 K	804.35	822.32	840.73	860.67	880.7	901.75	922.86	945.68	969.05	992.41

NCCO [2-aminoethan-1-ol] + CCCO
mass density [kg/m3]
Conditions	x1 = 0.0986	x1 = 0.1974	x1 = 0.2966	x1 = 0.3961	x1 = 0.496	x1 = 0.5961	x1 = 0.6966	x1 = 0.7974	x1 = 0.8985	x1 = 1
293.15 K	823.05	842.4	862.05	882.56	903.81	924.46	946.99	969.87	992.94	1016.47
298.15 K	818.95	838.27	857.94	878.51	899.73	920.46	942.97	965.86	988.96	1012.53
303.15 K	814.83	834.12	853.8	874.37	895.6	916.36	938.85	961.75	984.88	1008.47
308.15 K	810.75	830.03	849.74	870.31	891.55	912.32	934.79	957.71	980.88	1004.49
313.15 K	806.64	825.91	845.63	866.21	887.47	908.27	930.72	953.68	976.87	1000.5
318.15 K	802.38	821.65	841.39	861.99	883.26	904.08	926.53	949.53	972.75	996.39
323.15 K	798.19	817.46	837.23	857.84	879.14	899.9	922.45	945.49	968.76	992.41

CCCO [propan-1-ol] + NCCO
x2 = 0
Conditions	mass density [kg/m3]
293.15 K	803.77
298.15 K	799.69
303.15 K	795.58
308.15 K	791.52
313.15 K	787.42
318.15 K	783.17
323.15 K	778.96

NCCO [2-aminoethan-1-ol] + CCO
mass density [kg/m3]
Conditions	x1 = 0.0773	x1 = 0.1586	x1 = 0.2443	x1 = 0.3346	x1 = 0.43	x1 = 0.5308	x1 = 0.6377	x1 = 0.7511	x1 = 0.8716	x1 = 1
293.15 K	810.46	831.93	853.39	876.12	899.09	921.99	945.08	968.64	992.58	1016.47
298.15 K	806.22	827.71	849.2	871.96	894.95	917.9	941.02	964.62	988.58	1012.53
303.15 K	801.86	823.37	844.9	867.69	890.7	913.65	936.83	960.48	984.46	1008.47
308.15 K	797.55	819.07	840.65	863.47	886.5	909.55	932.73	956.42	980.42	1004.49
313.15 K	793.21	814.75	836.38	859.23	882.29	905.4	928.6	952.34	976.38	1000.5
318.15 K	788.71	810.29	831.96	854.85	877.94	901.1	924.34	948.13	972.21	996.39
323.15 K	784.27	805.9	827.62	850.55	873.69	896.9	920.19	944.04	968.17	992.41

NCCO [2-aminoethan-1-ol] + CC(C)(C)O
mass density [kg/m3]
Conditions	x1 = 0.1188	x1 = 0.2328	x1 = 0.3421	x1 = 0.4472	x1 = 0.5482	x1 = 0.6454	x1 = 0.739	x1 = 0.8291	x1 = 0.9161	x1 = 1
298.15 K	801.37	821.17	842.86	865.97	887.94	912.32	938.36	962.65	988.97	1012.53
303.15 K	796.64	816.75	838.57	861.74	883.79	908.2	934.25	958.59	984.91	1008.47
308.15 K	791.93	812.34	834.31	857.55	879.69	904.13	930.2	954.6	980.92	1004.49
313.15 K	787.14	807.85	829.98	853.33	875.55	900.04	926.15	950.59	976.92	1000.5
318.15 K	782.16	803.17	825.49	848.95	871.27	895.8	921.97	946.45	972.81	996.39
323.15 K	777.17	798.52	821.03	844.64	867.05	891.65	917.86	942.41	968.8	992.41

CCCCO [butan-1-ol] + NCCO
x2 = 0
Conditions	mass density [kg/m3]
293.15 K	809.77
298.15 K	805.92
303.15 K	802
308.15 K	798.14
313.15 K	794.24
318.15 K	790.2
323.15 K	786.21

CC(C)O [propan-2-ol] + NCCO
x2 = 0
Conditions	mass density [kg/m3]
293.15 K	785.1
298.15 K	780.91
303.15 K	776.57
308.15 K	772.24
313.15 K	767.82
318.15 K	763.19
323.15 K	758.55

CC(C)(C)O [2-methylpropan-2-ol] + NCCO
x2 = 0
Conditions	mass density [kg/m3]
298.15 K	780.61
303.15 K	775.42
308.15 K	770.21
313.15 K	764.92
318.15 K	759.42
323.15 K	753.95

CC(C)CO [2-methyl-1-propanol] + NCCO
x2 = 0
Conditions	mass density [kg/m3]
293.15 K	801.85
298.15 K	797.99
303.15 K	794.03
308.15 K	790.09
313.15 K	786.12
318.15 K	781.97
323.15 K	777.86
